# Patent publication US12590066B2, “Fused-heterocyclyl-carbonohydrazonoyl dicyanide compounds and use thereof” (KOREA INSTITUTE OF SCIENCE AND TECHNOLOGY, priority 2020, dated 2026)
# pIC50: −log10 of the molar value.
# Key:
# tau protein = target: T1, tau protein (Homo sapiens, UniProt P10636); assay: Tau-BiFC cell model, inhibition of Forskolin-induced tau protein aggregation; type: cell-based; conditions: Forskolin 30 μM, 48 hours; for Tau BiFC in cells Response (% @10 μM): 10 μM compound, Forskolin-only group = 100% tau protein-aggregated state; for pIC50: tau-BiFC cells
# T1 construct: BiFC fluorescent-protein fragments (type and halves not specified); expressed in transfected cells
# T1 sequence (P10636 1-441 isoform P10636-8): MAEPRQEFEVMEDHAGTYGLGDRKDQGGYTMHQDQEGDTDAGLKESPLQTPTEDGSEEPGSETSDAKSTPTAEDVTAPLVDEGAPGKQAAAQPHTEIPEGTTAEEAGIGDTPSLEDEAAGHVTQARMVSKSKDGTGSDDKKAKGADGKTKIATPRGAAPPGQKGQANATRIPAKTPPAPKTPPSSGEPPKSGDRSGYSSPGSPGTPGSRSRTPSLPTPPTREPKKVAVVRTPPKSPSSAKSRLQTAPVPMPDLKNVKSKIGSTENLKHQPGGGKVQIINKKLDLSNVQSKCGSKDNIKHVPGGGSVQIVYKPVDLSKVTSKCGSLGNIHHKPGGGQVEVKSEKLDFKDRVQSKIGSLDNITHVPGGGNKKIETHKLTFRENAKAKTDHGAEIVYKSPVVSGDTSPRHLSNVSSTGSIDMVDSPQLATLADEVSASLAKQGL
# Experimental: In order to select novel tau protein aggregation-inhibiting substances, tau-BiFC cell model, in which formation of tau oligomers in living cells is easily observed, was used. Tau-BiFC cells were aliquoted into a 384-well plate. On the next day, the cells were treated with each of the compounds prepared according to Examples 1 to 57 at concentrations of 1 μM, 3 μM, and 10 μM, together with Forskolin (at a treatment concentration of 30 μM), which is a compound inducing tau protein aggregation by activating tau phosphorylase PKA. After 48 hours, nuclei in the cells were stained using Hoechst (at a treatment concentration of 2 μg/mL), and BiFC fluorescence intensity was automatically measured using Operetta (PerkinElmer) to count stained nuclei in each well out of the entire well plate. The group treated only with Forskolin, which induces tau protein aggregation, was set to a reference point of a 100% tau protein-aggregated state, and the effects of the compounds were confirmed using the equation “BiFC fluorescence intensity due to compound synthesized according to embodiment of present invention/(fluorescence intensity of control group treated only with Forskolin inducing tau protein aggregation−fluorescence intensity of untreated control group)×100”. Furthermore, the degree of cytotoxicity induced by the newly synthesized compound was also measured based on the 100% cell viability of the group treated only with Forskolin as a reference, and the cytotoxicity value of each compound was calculated using the equation “(number of stained nuclei in group treated with compound/number of stained nuclei in group treated with Forskolin)×100”. Based on the treatment results, substances inhibiting intracellular tau protein aggregation were selected from a series of candidate groups showing a tau protein aggregation inhibition rate of 70% or more and cell viability of 100% at a compound treatment concentration of 10 μM or more.
# In order to evaluate dose-dependent tau protein aggregation inhibition effects of the compounds selected according to Experimental Example 1 on tau protein aggregation, tau-BiFC cells were treated with the selected compounds at concentrations of 0.03 μM, […], 0.3 μM, 1 μM, 3 μM, 10 μM, and 30 μM, respectively, together with Forskolin (at a treatment concentration of 30 μM), which is a tau protein aggregation-inducing substance. After 48 hours, tau protein aggregation reaction and degrees of cytotoxicity were analyzed by observing images of the cells. IC50 and toxicity of the compounds were analyzed by way of nonlinear regression analysis of prism software (Graph Pad).
# [1] = Liver microsome stability; type: in vitro ADME; conditions: 1 μM compound, 37° C., 30 minutes, NADPH; for Dog (%) amount of substrate remaining after the reaction: dog liver microsomes 0.25 mg/mL; for Human (%) amount of substrate remaining after the reaction: human liver microsomes 0.25 mg/mL; for Mouse (%) amount of substrate remaining after the reaction: mouse liver microsomes 0.25 mg/mL; for Rat (%) amount of substrate remaining after the reaction: rat liver microsomes 0.25 mg/mL
# Experimental: The stability of liver microsomes due to the compounds prepared according to Examples 1 to 57 was confirmed. Specifically, four types of liver microsomes (human, dog, rat, and mouse, each 0.25 mg/mL), a 0.1 M phosphate buffer solution (pH 7.4), and each of the compounds at a concentration of 1 μM were mixed and pre-cultured at 37° C. for 5 minutes and further cultured at 37° C. for 30 minutes together with an NADPH generation system solution added thereto. Thereafter, the reaction was terminated by adding an acetonitrile solution containing an internal standard material (chloropropamide) and centrifuged for 5 minutes (14,000 rpm, 4° C.), and then a supernatant was injected into an LC-MS/MS system for analysis of substrate drugs to thereby evaluate metabolic stability due to 8 types of compounds.
# The amount of the substrate remaining after the reaction was analyzed using the Shimadzu Nexera XR system and TSQ Vantage (Thermo). In an HPLC column, Kinetex XB-C18 (2.1 mm×100 mm, particle size of 2.6 μm; Phenomenex, USA) was used, and mobile phases were (A) distilled water containing 0.1% formic acid and (B) acetonitrile containing 0.1% formic acid. Analyst software (version 1.6.3) and Xcalibur (version 1.6.1) were used for data analysis.
# Tau-BiFC cells = assay: Cell viability (stained nuclei count) in Tau-BiFC cells; type: cell-based; conditions: 10 μM compound, 48 hours; Forskolin-only group = 100% cell viability
# Experimental: In order to select novel tau protein aggregation-inhibiting substances, tau-BiFC cell model, in which formation of tau oligomers in living cells is easily observed, was used. Tau-BiFC cells were aliquoted into a 384-well plate. On the next day, the cells were treated with each of the compounds prepared according to Examples 1 to 57 at concentrations of 1 μM, 3 μM, and 10 μM, together with Forskolin (at a treatment concentration of 30 μM), which is a compound inducing tau protein aggregation by activating tau phosphorylase PKA. After 48 hours, nuclei in the cells were stained using Hoechst (at a treatment concentration of 2 μg/mL), and BiFC fluorescence intensity was automatically measured using Operetta (PerkinElmer) to count stained nuclei in each well out of the entire well plate. The group treated only with Forskolin, which induces tau protein aggregation, was set to a reference point of a 100% tau protein-aggregated state, and the effects of the compounds were confirmed using the equation “BiFC fluorescence intensity due to compound synthesized according to embodiment of present invention/(fluorescence intensity of control group treated only with Forskolin inducing tau protein aggregation−fluorescence intensity of untreated control group)×100”. Furthermore, the degree of cytotoxicity induced by the newly synthesized compound was also measured based on the 100% cell viability of the group treated only with Forskolin as a reference, and the cytotoxicity value of each compound was calculated using the equation “(number of stained nuclei in group treated with compound/number of stained nuclei in group treated with Forskolin)×100”. Based on the treatment results, substances inhibiting intracellular tau protein aggregation were selected from a series of candidate groups showing a tau protein aggregation inhibition rate of 70% or more and cell viability of 100% at a compound treatment concentration of 10 μM or more. […]
compound,measurement,setting,value
"Cn1ccc2ccc(NN=C(C#N)C#N)cc2c1=O [Compound 2, (2-methyl-1-oxo-1,2-dihydroisoquinolin-7-yl)carbonohydrazonoyl dicyanide]",Tau BiFC in cells Response (% @10 μM),tau protein,0%
same,Dog (%) amount of substrate remaining after the reaction,[1],2.5%
same,Human (%) amount of substrate remaining after the reaction,[1],27%
same,Mouse (%) amount of substrate remaining after the reaction,[1],63.4%
same,Rat (%) amount of substrate remaining after the reaction,[1],88%
same,Cell viability (% @10 μM),Tau-BiFC cells,57.5%
"CC(C)n1ccc2ccc(NN=C(C#N)C#N)cc2c1=O [Compound 3, (2-isopropyl-1-oxo-1,2-dihydroisoquinolin-7-yl)carbonohydrazonoyl dicyanide]",Tau BiFC in cells Response (% @10 μM),tau protein,0%
same,pIC50,tau protein,6.70
same,Dog (%) amount of substrate remaining after the reaction,[1],6.4%
same,Human (%) amount of substrate remaining after the reaction,[1],57.4%
same,Mouse (%) amount of substrate remaining after the reaction,[1],10.1%
same,Rat (%) amount of substrate remaining after the reaction,[1],44.4%
same,Cell viability (% @10 μM),Tau-BiFC cells,112%
"N#CC(C#N)=NNc1cccc2c(=O)[nH]ccc12 [Compound 4, (1-oxo-1,2-dihydroisoquinolin-5-yl)carbonohydrazonoyl dicyanide]",Tau BiFC in cells Response (% @10 μM),tau protein,0%
same,pIC50,tau protein,5.74
same,Dog (%) amount of substrate remaining after the reaction,[1],>100%
same,Human (%) amount of substrate remaining after the reaction,[1],>100%
same,Mouse (%) amount of substrate remaining after the reaction,[1],>100%
same,Rat (%) amount of substrate remaining after the reaction,[1],94.5%
same,Cell viability (% @10 μM),Tau-BiFC cells,99.3%
"Cn1ccc2c(NN=C(C#N)C#N)cccc2c1=O [Compound 5, (2-methyl-1-oxo-1,2-dihydroisoquinolin-5-yl)carbonohydrazonoyl dicyanide]",Tau BiFC in cells Response (% @10 μM),tau protein,0%
same,Dog (%) amount of substrate remaining after the reaction,[1],>100%
same,Human (%) amount of substrate remaining after the reaction,[1],98.1%
same,Mouse (%) amount of substrate remaining after the reaction,[1],92.9%
same,Rat (%) amount of substrate remaining after the reaction,[1],>100%
same,Cell viability (% @10 μM),Tau-BiFC cells,41.4%
"CC(C)n1ccc2c(NN=C(C#N)C#N)cccc2c1=O [Compound 6, (2-isopropyl-1-oxo-1,2-dihydroisoquinolin-5-yl)carbonohydrazonoyl dicyanide]",Tau BiFC in cells Response (% @10 μM),tau protein,0%
same,pIC50,tau protein,6.15
same,Dog (%) amount of substrate remaining after the reaction,[1],95%
same,Human (%) amount of substrate remaining after the reaction,[1],94.2%
same,Mouse (%) amount of substrate remaining after the reaction,[1],87%
same,Rat (%) amount of substrate remaining after the reaction,[1],>100%
same,Cell viability (% @10 μM),Tau-BiFC cells,118.1%
"Cc1cc2c(NN=C(C#N)C#N)cccc2c(=O)n1C [Compound 7, (2,3-dimethyl-1-oxo-1,2-dihydroisoquinolin-5-yl)carbonohydrazonoyl dicyanide]",Tau BiFC in cells Response (% @10 μM),tau protein,0%
same,pIC50,tau protein,6.70
same,Dog (%) amount of substrate remaining after the reaction,[1],95.7%
same,Human (%) amount of substrate remaining after the reaction,[1],96%
same,Mouse (%) amount of substrate remaining after the reaction,[1],93.3%
same,Rat (%) amount of substrate remaining after the reaction,[1],89.7%
same,Cell viability (% @10 μM),Tau-BiFC cells,101.9%
"Cn1c(=O)n(C)c2cc(NN=C(C#N)C#N)c(Cl)cc21 [Compound 10, (6-chloro-1,3-dimethyl-2-oxo-2,3-dihydro-1H-benzo[d]imidazol-5-yl)carbonohydrazonoyl dicyanide]",Tau BiFC in cells Response (% @10 μM),tau protein,0%
same,pIC50,tau protein,6.52
same,Dog (%) amount of substrate remaining after the reaction,[1],98.1%
same,Human (%) amount of substrate remaining after the reaction,[1],>100%
same,Mouse (%) amount of substrate remaining after the reaction,[1],92.6%
same,Rat (%) amount of substrate remaining after the reaction,[1],92.7%
same,Cell viability (% @10 μM),Tau-BiFC cells,145.3%
